Test results published in patent US8637461B2, “Method of diagnosing and treating oxidative stress-impaired wound healing” (Kuwait University, priority 2011, dated 2014).

How the values were obtained:
[1] = tested on: excisional wounds; test: Full-thickness excisional wound healing, 7 days; type: in vivo, rat
Procedure: (§1) All animal procedures were performed in accordance with the NIH Guidance for the Care and Use of Laboratory Animals. The current study used, respectively the GK and Dexamethasone-treated rats as models for diabetes and hypercortisolemia. Dexamethasone was administered subcutaneously at a dose of 2.5 μg/kg body weight in the morning (8:00 AM) and in the evening (8:00 PM) for a duration of four weeks before wounding and this form of therapy continued during the course of healing. […] Weight and age-matched female Wistar rats (Kuwait University breeding colony) served as the corresponding controls. All of the animals were maintained under standard conditions with 12 hours on/off light cycle, commercial diet, and water ad libitum. GK rats destined for wounding were initially matched with regard to body weight (e.g., 230 to 250 g), and plasma levels of glucose, free fatty acids and insulin. These indices are commonly used to reflect the severity of the diabetic state.
(§2) Animals used for IGF-1 sensitivity (n=6/group) and wound healing (n=8) studies were partitioned into five study groups including control, diabetic, hypercortisolemic, diabetic+EUK and hypercortisolemic+EUK. The EUK-134 was administered for duration of four weeks before wound induction and it continued during the course of healing.
Animals derived from various experimental groups were anesthetized by ip, injection of 90 mg ketamine+10 mg xylazine/kg body weight, and their back skin was shaved, depilated with Nair and cleaned with 70% alcohol. Six bilateral full-thickness excisional wounds (8 mm in diameter) at equidistant from midline were created on the dorso-rostral back skin. Wounds were separated by a minimum of 1 cm of uninjured skin. […] The wound area was analyzed using Adobe PhotoShop (version 7.0; Adobe Systems) and the percentage of wound closure was derived by the following formula: (1−[current wound size/initial wound size])×100.

[2] = tested on: protein-bound carbonyls; test: Protein-bound carbonyl ELISA in fibroblasts; type: cell-based, rat; conditions: diabetic, TNF-α- or dexamethasone-exposed cells; EUK-134
Procedure: (§3) Primary dermal fibroblasts were obtained from dorsal skin of female Goto Kakizaki (GK, age 12-15 months) rats, a model for non-obese type 2 diabetes, and their Wistar control counterparts. After sterilization in povidine solution, rat skin was washed in sterile water and rinsed in 70% ethanol in PBS. Epidermis and dermis were separated following overnight incubation in 0.25% trypsine/EDTA at 4 C. Dermis was cut into small pieces and incubated in Dulbecco's modified Eagle medium (DMEM; Invitrogen) containing collagenase (250 U/ml; Sigma) for thirty min at 37 C in 5% CO2 with constant agitation. The sections were triturated vigorously to release fibroblasts, which were collected by centrifugation. […]
(§4) A hypercortisolemic state was mimicked by exposing control fibroblasts to dexamethasone (Dexa, Sigma) administered at 20 ng/ml every other day for a duration of 8 days. […] The concentration of IGF-1 (50 ng/ml, Peprotech) was determined by prior dose response experiment.
Protein-bound carbonyl levels in fibroblasts, a marker of cumulative oxidative stress, were determined using a procedure in which a sensitive ELISA-based assay was used to measure total protein-bound carbonyls using oxidized bovine serum albumin (BSA) as standard. […]

[3] = tested on: Jun N-terminal kinase (JNK); test: JNK phosphorylation, FACE-JNK ELISA in fibroblasts; type: cell-based, rat; conditions: diabetic, TNF-α- or dexamethasone-exposed cells; EUK-134
Procedure: as §3, §4
Activation of Akt and JNK was analyzed in fixed fibroblasts using FACE-Akt and FACE-JNK (both from Active Motife). […] Labeling with antibodies was conducted according to the manufacturer's protocol and the resulting phosphoantibody signal was calculated after correction for number of cells and total Akt or JNK levels in each sample. […]

[4] = Rapid insulin sensitivity test (RIST) with IGF-1 instead of insulin; type: in vivo, rat; conditions: diabetic/hypercortisolemic rats, chronic administration of antioxidant
Procedure: as §1, §2
IGF-1 sensitivity in control, diabetic and hypercortisolemic animals was determined using the rapid insulin sensitivity test (RIST) with IGF-1 (200 μg/kg BW) infused instead of insulin. The RIST index is the amount of glucose per kg body weight required to maintain euglycemia following a bolus of insulin (50 mU/kg BW).

[5] = tested on: PI3K-p85α / IRS-1; test: Co-precipitation of PI3K p85α with IRS-1 in dermal fibroblasts; type: cell-based, rat; conditions: diabetic, TNF-α- or dexamethasone-exposed fibroblasts; EUK-134
Procedure: as §3, §4
Levels/activities of key intracellular molecules in the IGF-1 signaling cascade including IRS-1, IRS-1 Tyr-p-612, PI3K-p85α, IRS-1 Ser-p (307), PI3K, Akt, p-Akt, INK and p-JNK were assessed using western blotting/immunoprecipitation and commercially available ELISA-based assays. […]

## COc1cccc(C=NCCN=Cc2cccc(OC)c2[O-])c1[O-].[Cl-].[Mn+3] [EUK-134]
[1]; diabetic rats, treatment with EUK-134 and/or IGF-1
  wound healing: heal as rapidly as those on control rats
[1]; diabetic/hypercortisolemic rat wounds, antioxidant administered
  healing rates of wounds: statistically indistinguishable from control rat wounds treated with IGF-1 alone
[2]
  carbonylated protein accumulation: returned to approximately normal
[3]
  basal JNK activity (phosphorylation): returns its phosphorylation state to approximate levels found in normal fibroblasts
[4]
  improvement of glucose metabolism in response to bolus injection of IGF-1: about 20%
[5]
  association of PI3K p85α with IRS-1 in response to IGF-1: restores this association
